Test results taken from patent US5385842A, “Anthraquinones as inhibitors of sulfide production from sulfate-reducing bacteria” (E. I. Du Pont de Nemours and Company, priority 1993, dated 1995).

Key:
[1] = test system: Thiobacillus denitrificans; assay: Growth of Thiobacillus denitrificans; type: cell-based
Protocol: Thiobacillus denitrificans was grown on BTZ-3 medium as defined in Example 1 (supplemented with reducing agent) and with 30 mM sodium nitrate plus 30 mM sodium thiosulfate. Cultures were anaerobic under a nitrogen atmosphere. Thus growth conditions mimicked those for the sulfate-reducingbacteria as closely as possible. […]

[2] = test system: D. desulfuricans strain G100A; assay: Growth by pyruvate fermentation in the absence of sulfate; type: cell-based
Protocol: D. desulfuricans strain G100A was grown using pyruvate fermentation in the absence of sulfate.

[3] = test system: sulfate reducing bacteria (crude enrichments from various naturally-occuring environments); assay: Sulfide production by crude enrichments from naturally-occurring environments; type: cell-based; conditions: 5 ppm
Protocol: All samples were grown on standard BTZ-3 medium (as defined in Example 1) under hydrogen (80%) carbon dioxide (20%) with 10 mM acetate and 0.1% yeast extract. Mud samples were inoculated into this medium and allowed to grow for 24 h to enrich for sulfate reducing bacteria. A 1 ml aliquot of this enrichment was transferred to fresh medium and the sulfide evolved was measured over a three day period. Sulfide was assayed as described by Siegal, Anal. Biochem. 11: 126-132, 1965, herein incorporated by reference.

[4] = test system: B. aureus, B. subtilis, B. stearothermophilus and S. aureus; conditions: background art; cited from earlier work
[5] = test system: D. desulfuricans Norway; assay: Growth of different sulfate-reducers with 1,8-dihydroxyanthraquinone (Example 7); type: cell-based; conditions: 3 ppm, 40 hours; control .30
Protocol: Growth was monitored as optical density at 660 nm for 40 hours.

[6] = test system: D. desulfuricans G100A; assay: Effect of dithionite-reduced anthraquinones on growth of D. desulfuricans G100A; type: cell-based
Protocol: Three anthraquinones, 1,8-dihydroxy-, 1-chloro-, and 3-chloro-2-carboxy- were prepared as 1 ml of 1000 ppm solutions in acetone for the first two compounds or water for the third. These solutions were then treated with 1 mg of the strong reducing agent, sodium dithionite. 50 ul of each solution (for a final culture concentration of 5 ppm) was used immediately to treat growing cultures of D. desulfuricans G100A in BTZ-3 medium as defined in Example 1. The compounds were added to the 10 ml cultures at 15 h of growth.

For O=C1c2cccc(O)c2C(=O)c2c(O)cccc21 [1,8-Dihydroxyanthraquinone], which “Optical Density @ 660 nm” value ([1]; 0 h of growth, before addition of 3 ppm at 19 h, control .02) is on record?
The value was “.0”.

What about the “effect on growth (in words)” value ([1]; 3 ppm) of the same compound?
The value was “no effect on the growth of T. denitrificans”.

What about the “Optical Density @ 660 nm” value ([1]; 12 h of growth, before addition of 3 ppm at 19 h, control .06) of the same compound?
The value was “.06”.

And the “Optical Density @ 660 nm” value ([1]; 15 h of growth, before addition of 3 ppm at 19 h, control .08)?
The value was “.08”.

And the “Optical Density @ 660 nm” value ([1]; 19 h of growth, time of addition of 3 ppm, control .09)?
The value was “.09”.

What about the “Optical Density @ 660 nm” value ([1]; 34 h of growth, 3 ppm added at 19 h, control .22) of the same compound?
The value was “.22”.

And the “Optical Density @ 660 nm” value ([1]; 36 h of growth, 3 ppm added at 19 h, control .29)?
Its value is “.25”.

What about the “Optical Density @ 660 nm” value ([1]; 38 h of growth, 3 ppm added at 19 h, control .32) of the same compound?
The value was “.27”.

And the “Optical Density @ 660 nm” value ([1]; 43 h of growth, 3 ppm added at 19 h, control .40)?
The value was “.32”.

What about the “Optical Density @ 660 nm” value ([1]; 55 h of growth, 3 ppm added at 19 h, control 1.5) of the same compound?
The value was 1.5.

And the “Optical Density @ 660 nm” value ([2]; 0 h, before addition of 3 ppm at 6.5 h, control .11)?
Its value is “.1”.

And the “effect on fermentative growth (in words)” value ([2]; 3 ppm)?
Its value is “did not affect fermentative growth”.

What about the “Optical Density @ 660 nm” value ([2]; 2 h, before addition of 3 ppm at 6.5 h, control .12) of the same compound?
Its value is “.12”.

And the “Optical Density @ 660 nm” value ([2]; 3.5 h, before addition of 3 ppm at 6.5 h, control .14)?
Its value is “.14”.

And the “Optical Density @ 660 nm” value ([2]; 6.5 h, time of addition of 3 ppm, control .15)?
Its value is “.16”.

And the “Optical Density @ 660 nm” value ([2]; 8.5 h, 3 ppm added at 6.5 h, control .18)?
Its value is “.16”.

What about the “Optical Density @ 660 nm” value ([2]; 10.7 h, 3 ppm added at 6.5 h, control .19) of the same compound?
Its value is “.17”.

What about the “Optical Density @ 660 nm” value ([2]; 25 h, 3 ppm added at 6.5 h, control .26) of the same compound?
Its value is “.22”.

And the “Optical Density @ 660 nm” value ([2]; 32 h, 3 ppm added at 6.5 h, control .37)?
The value was “.34”.

And the “Optical Density @ 660 nm” value ([2]; 45 h, 3 ppm added at 6.5 h, control .46)?
Its value is “.45”.

And the “inhibition of enrichments (in words)” value [3]?
Its value is “the majority of enrichments from natural sources were inhibited”.

What about the “sulfide production, treated” value ([3]; SM-Lewes (Lewes saltmarsh), control 6.4) of the same compound?
The value was 4.5 umol sulfide/day.

What about the “sulfide production, treated” value ([3]; VF-A2 (Valley Garden Park, aerobic), control 64.0) of the same compound?
The value was -11.0 umol sulfide/day.

And the “sulfide production, treated” value ([3]; VF-A (Valley Garden Park, aerobic), control 24.0)?
Its value is -2.0 umol sulfide/day.

What about the “sulfide production, treated” value ([3]; VF-AN (Valley Garden Park, anaerobic), control 67.0) of the same compound?
Its value is 2.8 umol sulfide/day.

What about the “sulfide production, treated” value ([3]; VS-A (Valley Stream State Park, aerobic), control 49.0) of the same compound?
Its value is -1.0 umol sulfide/day.

And the “sulfide production, treated” value ([3]; VS-AN2 (Valley Stream State Park, anaerobic), control 116.0)?
Its value is 0.0 umol sulfide/day.

And the “sulfide production, treated” value ([3]; VS-AN (Valley Stream State Park, anaerobic), control 12.0)?
The value was -4.0 umol sulfide/day.

And the “sulfide production, treated” value ([3]; WADS (Wilmington anaerobic digestor), control 106.7)?
The value was 71.0 umol sulfide/day.

What about the “sulfide production, treated” value ([3]; WCC-A1 (White Clay Creek Preserve, aerobic), control 411.0) of the same compound?
Its value is 67.0 umol sulfide/day.

And the “sulfide production, treated” value ([3]; WCC-A2 (White Clay Creek Preserve, aerobic), control 388.0)?
Its value is 49.0 umol sulfide/day.

And the “sulfide production, treated” value ([3]; WCC-AN1 (White Clay Creek Preserve, anaerobic), control 345.0)?
Its value is 80.0 umol sulfide/day.

And the “sulfide production, treated” value ([3]; WCC-AN2 (White Clay Creek Preserve, anaerobic), control 288.0)?
Its value is 37.0 umol sulfide/day.

What about the “antibacterial activity (in words)” value [4] of the same compound?
The value was “inactive”.

What about the “Optical Density @ 660 nm, treated” value [5] of the same compound?
Its value is “.09”.

And the “Optical Density @ 660 nm” value ([6]; 0 h, before addition of 5 ppm dithionite-reduced compound at 15 h, control 0.02)?
Its value is 0.02.

And the “Optical Density @ 660 nm” value ([6]; 2 h, before addition of 5 ppm dithionite-reduced compound at 15 h, control 0.02)?
Its value is 0.02.

What about the “Optical Density @ 660 nm” value ([6]; 12 h, before addition of 5 ppm dithionite-reduced compound at 15 h, control 0.08) of the same compound?
The value was 0.10.

And the “Optical Density @ 660 nm” value ([6]; 15 h, time of addition of 5 ppm dithionite-reduced compound, control 0.18)?
The value was 0.2.

What about the “Optical Density @ 660 nm” value ([6]; 17 h, 5 ppm dithionite-reduced compound added at 15 h, control 0.26) of the same compound?
Its value is 0.24.

What about the “Optical Density @ 660 nm” value ([6]; 20 h, 5 ppm dithionite-reduced compound added at 15 h, control 0.37) of the same compound?
Its value is 0.23.

What about the “Optical Density @ 660 nm” value ([6]; 25 h, 5 ppm dithionite-reduced compound added at 15 h, control 0.50) of the same compound?
The value was 0.22.

And the “Optical Density @ 660 nm” value ([6]; 30 h, 5 ppm dithionite-reduced compound added at 15 h, control 0.98)?
The value was 0.23.

And the “Optical Density @ 660 nm” value ([6]; 45 h, 5 ppm dithionite-reduced compound added at 15 h, control 1.50)?
Its value is 0.25.
